# Where two headings read alike, the source gives them in different places.
# Assays:
# [1] = target: T1, Notum(81–451 Cys330Ser) (Homo sapiens, UniProt Q6P988, C330S); experiment: Notum biochemical OPTS assay (carboxylesterase activity); settings: for IC50: OPTS substrate, 1 h incubation, geometric mean ± s.d.
# T1 sequence (Q6P988 81-451 C330S): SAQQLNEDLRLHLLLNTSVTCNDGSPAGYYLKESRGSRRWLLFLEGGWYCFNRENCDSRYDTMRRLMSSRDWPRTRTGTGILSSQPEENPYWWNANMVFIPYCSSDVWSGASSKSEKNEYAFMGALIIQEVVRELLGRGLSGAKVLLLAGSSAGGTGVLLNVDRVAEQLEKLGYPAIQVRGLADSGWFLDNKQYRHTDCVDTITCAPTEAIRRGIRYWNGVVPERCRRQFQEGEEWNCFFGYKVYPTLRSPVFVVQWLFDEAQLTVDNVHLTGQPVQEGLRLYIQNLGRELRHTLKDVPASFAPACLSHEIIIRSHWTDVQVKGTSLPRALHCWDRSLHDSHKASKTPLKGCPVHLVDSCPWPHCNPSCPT
# [2] = Metabolic stability in mouse liver microsomes (MLM); type: in vitro ADME; settings: mouse liver microsomes
# [3] = test system: P-gp (MDR1); experiment: MDCK-MDR1 cell permeability and efflux; type: in vitro ADME; settings: dog; for efflux ratio: MDCK-MDR1, read-out: MDCK-MDR1 efflux ratio (ER)
# [4] = target: T2, Notum (Homo sapiens, UniProt Q6P988); experiment: Notum TCF/LEF reporter (Luciferase) HEK293 cell assay
# T2 sequence (Q6P988 20-496): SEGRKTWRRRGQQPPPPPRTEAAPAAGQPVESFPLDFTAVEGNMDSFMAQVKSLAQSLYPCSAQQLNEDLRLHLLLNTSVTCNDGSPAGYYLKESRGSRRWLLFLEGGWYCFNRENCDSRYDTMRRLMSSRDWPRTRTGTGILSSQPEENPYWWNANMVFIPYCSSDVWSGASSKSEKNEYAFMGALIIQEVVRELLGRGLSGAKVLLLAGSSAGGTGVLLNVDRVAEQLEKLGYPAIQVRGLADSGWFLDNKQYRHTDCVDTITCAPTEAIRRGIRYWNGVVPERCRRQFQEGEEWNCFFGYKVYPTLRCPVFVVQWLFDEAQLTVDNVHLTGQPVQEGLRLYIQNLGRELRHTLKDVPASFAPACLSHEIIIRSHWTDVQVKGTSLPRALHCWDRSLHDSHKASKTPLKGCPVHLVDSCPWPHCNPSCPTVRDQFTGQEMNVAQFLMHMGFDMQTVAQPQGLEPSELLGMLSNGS
# Text: Selected compounds were screened for inhibition of Notum activity in a Wnt/β-catenin signaling pathway TCF/LEF Reporter (Luciferase) HEK293 cell line and Notum occupancy in a FP-biotin competition assay.[15], [18]
# [5] = test system: MDCK-MDR1 monolayer; settings: amides 4, cited from earlier work; for MDCK-MDR1 AB Papp: A to B direction; for MDCK-MDR1 BA Papp: B to A direction
# [6] = target: T3, Notum (Homo sapiens, UniProt Q6P988, C330S); experiment: Notum enzymatic stability (biochemical assay without OPTS substrate); settings: up to 72 h
# T3 sequence (Q6P988 81-451 C330S): T1 sequence (Q6P988 81-451 C330S)
# [7] = Hydrolytic stability in citrate buffer; type: physicochemical; settings: citrate buffer 0.1 M, pH 4, up to 24 h, UPLC-MS
# [8] = target: T1, Notum(81–451 Cys330Ser); settings: thieno[3,2-d]pyrimidine amides 4; OPTS assay; geometric mean ± s.d.; cited from earlier work
# [9] = MDCK-MDR1, A to B direction, read-out: MDCK-MDR1 AB Papp
# [10] = MDCK-MDR1, B to A direction, read-out: MDCK-MDR1 BA Papp
# [11] = read-out: Notum EC50 (TCF-LEF), rWNT3a 100 ng/mL, Notum 500 ng/mL, geometric mean ± s.d., n = 3–4
IC50 [1] [nM],MLM Cli [2] [µL/min/mg],"Papp [3, 9] [×10⁻⁶ cm/s]","Papp [3, 10] [×10⁻⁶ cm/s]",efflux ratio [3],SMILES,further results
450 ± 200,,,,,Cc1sc2ncnc(SCC(=O)N3CC(=O)NC(C)(C)C3)c2c1Cl [Compound 5j],
1.6 ± 0.1,27,31,35,1.1,Cc1c(C(F)(F)F)sc2ncnc(SCC(=O)N3CC(=O)N(C)C3)c12 [Compound 22],"EC50 [4, 11]: 210 nM"
7 ± 2.5,24,,,,Cc1sc2ncnc(SCC(=O)N3CC(=O)N(C)C3)c2c1C(F)(F)F [Compound 23],"EC50 [4, 11]: 170 nM"
33 ± 5,,,,,Cc1sc2ncnc(SCC(=O)N3CC(=O)NC(C)C3)c2c1Cl (stereo not drawn) [Compound 5i],
2.6 ± 0.1,43,35,51,1.5,CCN1CN(C(=O)CSc2ncnc3sc(C)c(Cl)c23)CC1=O [Compound 5m],
2.7 ± 0.5,65,14,82,5.9,Cc1sc2ncnc(SCC(=O)N3CNC(=O)C3)c2c1Cl [Compound 5e],
,,,,,O=C(CSc1ncnc2c(C3CC3)c(Cl)sc12)N1CCn2cnnc2C1 [Compound 4f],MDCK-MDR1 AB Papp [5]: 0.95 ×10⁻⁶ cm/s; MDCK-MDR1 BA Papp [5]: 93 ×10⁻⁶ cm/s
25 ± 4,,,,,"Cc1c(C#N)sc2ncnc(SCC(=O)O)c12 [Compound 11, 2-((6-cyano-5-methylthieno[2,3-d]pyrimidin-4-yl)thio)acetic acid]",
6.2 ± 0.5,33,23,62,2.7,Cc1sc2ncnc(SCC(=O)N3CCN(C)C(=O)C3)c2c1Cl [Compound 5g],
4.2 ± 0.4,100,1.1,37,34,CCN1CCN(C(=O)CSc2ncnc3sc(C)c(Cl)c23)CC1=O [Compound 5h],
50000,,,,,"O=C(O)CSc1ncnc2c1ccn2Cc1ccccc1 [Compound 16, 2-((7-benzyl-7H-pyrrolo[2,3-d]pyrimidin-4-yl)thio)acetic acid]",
220 ± 12,,,,,Cc1sc2ncnc(SCC(=O)N3CCCCC3)c2c1Cl [Compound 5b],
69 ± 10,,,,,Cc1sc2ncnc(SCC(=O)N3CCOCC3)c2c1Cl [Compound 5c],
15 ± 6,360,,,,Cc1sc2ncnc(SCC(=O)N(C)C)c2c1Cl [Compound 5a],
16 ± 2,15,0.5,51,> 100,Cc1sc2ncnc(SCC(=O)N3CCn4c(C)nnc4C3)c2c1Cl [Compound 5p],
8.1,,,,,N#Cc1sc2c(SCC(=O)O)ncnc2c1C1CC1 [Compound 12],
2100,,,,,Cc1nc(SCC(=O)O)c2c(C)c(C)sc2n1 [Compound 8],
790 ± 70,,,,,Cc1cc2c(SCC(=O)O)ncnc2s1 [Compound 6],
11 ± 6,37,17,44,2.6,Cc1nc2n(n1)CCN(C(=O)CSc1ncnc3sc(C)c(Cl)c13)C2 [Compound 5u],
,45,5.9,12,2,CN1CN(C(=O)CSc2ncnc3c(C4CC4)c(Cl)sc23)CC1=O [Compound 20],"EC50 [4]: < 250 nM; EC50 [4, 11]: 110 nM"
77000,,,,,O=C(O)CSc1ncnc2[nH]ccc12 [Compound 13],

IC50 [1] [nM],MLM Cli [2] [µL/min/mg],"Papp [3, 9] [×10⁻⁶ cm/s]","Papp [3, 10] [×10⁻⁶ cm/s]",efflux ratio [3],SMILES,further results
1100,,,,,Cc1nn(C)c2ncnc(SCC(=O)O)c12 [Compound 17],fold weaker Notum inhibition than 1 ([1]; relative to 1): 1000 fold
3.2 ± 0.5,,,,,Cc1c(C(F)(F)F)oc2ncnc(SCC(=O)O)c12 [Compound 19],
3.8 ± 1.3,49,,,,Cc1sc2ncnc(SCC(=O)N3CC(=O)N(C4CC4)C3)c2c1Cl [Compound 5n],
20 ± 4,63,7,51,7.3,Cc1sc2ncnc(SCC(=O)N3CC(=O)N4CCCC4C3)c2c1Cl (stereo not drawn) [Compound 5k],
1 ± 0.4,,,,,Cc1c(C(F)(F)F)sc2ncnc(SCC(=O)O)c12 [Compound 9],
20000,,,,,O=C(O)CSc1ncnc2[nH]cc(Cl)c12 [Compound 14],
27 ± 3,53,0.8,78,97,Cc1sc2ncnc(SCC(=O)N3CCn4c(nnc4C4CC4)C3)c2c1Cl [Compound 5r],
18 ± 5,140,15,27,1.8,Cc1sc2ncnc(SCC(=O)N3CCn4nc(C(F)(F)F)nc4C3)c2c1Cl [Compound 5v],
3.9 ± 0.4,140,,,,Cc1sc2ncnc(SCC(=O)N3CC(=O)N(CC(F)(F)F)C3)c2c1Cl [Compound 5o],
3.2 ± 0.1,13,0.6,56,93,Cc1sc2ncnc(SCC(=O)N3CCn4cnnc4C3)c2c1Cl [Compound 5f],Notum enzymatic stability [6]: only parent was detected; Hydrolytic stability [7]: only parent was detected
,,,,,O=C1CN(C(=O)CSc2ncnc3c(C4CC4)c(Cl)sc23)CN1 [Compound 4e],MDCK-MDR1 AB Papp [5]: 3.8 ×10⁻⁶ cm/s; MDCK-MDR1 BA Papp [5]: 14 ×10⁻⁶ cm/s
15 ± 3,53,19,49,2.6,Cc1sc2ncnc(SCC(=O)N3CCn4ncnc4C3)c2c1Cl [Compound 5t],
50 ± 14,,,,,Cc1oc2ncnc(SCC(=O)O)c2c1C [Compound 18],fold weaker Notum inhibition than 7 ([1]; relative to thiophene analogue 7): 10 fold
9.4 ± 1.5,31,21,45,2.1,Cc1sc2ncnc(SCC(=O)N3CC(=O)N(C)C3)c2c1C [Compound 21],"Activation of Wnt signaling (in words) ([4]; TCF/LEF reporter, rWNT3a 100 ng/mL, Notum 500 ng/mL): only modest activation of Wnt signaling; EC50 [4, 11]: 1300 nM"
23 ± 5,38,0.8,65,81,CCc1nnc2n1CCN(C(=O)CSc1ncnc3sc(C)c(Cl)c13)C2 [Compound 5q],
,,,,,O=C1CN(C(=O)CSc2ncnc3c(C4CC4)c(Cl)sc23)CCN1 [Compound 4d],MDCK-MDR1 AB Papp [5]: 7.9 ×10⁻⁶ cm/s; MDCK-MDR1 BA Papp [5]: 65 ×10⁻⁶ cm/s; IC50 [8]: < 10 nM
38 ± 3,93,15,85,5.7,Cc1sc2ncnc(SCC(=O)N3CCn4c(nnc4C(F)(F)F)C3)c2c1Cl [Compound 5s],
3.9 ± 0.7,,,,,Cc1sc2ncnc(SCC(=O)O)c2c1C(F)(F)F [Compound 10],
5.8 ± 4,19,12,66,5.5,Cc1sc2ncnc(SCC(=O)N3CCNC(=O)C3)c2c1Cl [Compound 5d],
15000,,,,,"Cn1ccc2c(SCC(=O)O)ncnc21 [Compound 15, 2-((7-methyl-7H-pyrrolo[2,3-d]pyrimidin-4-yl)thio)acetic acid]",

# Source: article PMC6961116, “Scaffold-hopping identifies furano[2,3-d]pyrimidine amides as potent Notum inhibitors” (Bioorganic & Medicinal Chemistry Letters, 2020)
